# Measurements published in patent US5565486A, “Sesquiterpenes, their preparation and their use as inhibitors acting on the gaba-benzodiazepine receptor” (Xenova Limited, priority 1992, dated 1996).
# What was measured:
# [1] = Solubility in organic solvents; type: physicochemical; conditions: solvents in which soluble
# benzodiazepine receptor = assay: Benzodiazepine-receptor binding assay ([3H]-flunitrazepam displacement, ox cerebral cortex synaptosomal preparation); conditions: for IC50: [3H]-flunitrazepam 1 nM, pH 7.4
# Experimental: The present compounds have shown activity in a benzodiazepine-receptor binding assay which uses a tritiated ligand specific for the receptor present on the purified GABA-Bz-Cl^- ionophore receptor complex. The details of the assay are set out in Example 5 which follows.
# The receptor extract was a crude synaptosomal preparation isolated from ox cerebral cortex by the method of Lang et al (FEBS Lett., 104 149-153, 1979). Receptor binding was determined using a modification described by O'Beirne and Williams (Eur. J. Biochem, 175 413-421, 1988) of the method of Braestrup and Squires (PNAS 74 3805-3809, 1977). The receptor preparation was incubated in 50 mM Tris/Cl, pH 7.4, with compound A and [^3 H]-flunitrazepam (agonist) at a final concentration of 1 nM. Bound radioligand was harvested on to glass fibre filters and measured by liquid scintillation counting. Non-specific binding was determined by displacement of ligand with Diazepam (1 μM).
# Binding data were fitted to one or two site models by weighted non-linear regression analysis using the computer programs `LIGAND` (Munson and Rodbard: Analytic Biochem 107 220-239, 1980) and `EBDA` (McPherson-Computer Prog. in Biomed. 7 107-114, 1983).
# The method described above was repeated using each of compounds B and C described in Examples 3 and 4 respectively, and also using compound D, which is the sodium salt of compound A.
# IC50 values were also determined for compounds A', E and F described in Examples 5 to 7 respectively.
structure (smiles),measurement,setting,value
C/C1=C\CC(C)(C)/C=C/C[C@@]2(C)OC3=C(O)C(=O)[C@H]4CO[C@H]([C@@H]34)[C@@H]2CC1 [Compound A],Solubility,[1],"Methanol, acetone, ethyl acetate"
same,IC50,benzodiazepine receptor,40 nM
same,% Inhibition,benzodiazepine receptor; concentration 3 nM,11%
same,% Inhibition,benzodiazepine receptor; concentration 9 nM,35%
same,% Inhibition,benzodiazepine receptor; concentration 28 nM,44%
same,% Inhibition,benzodiazepine receptor; concentration 93 nM,65%
same,% Inhibition,benzodiazepine receptor; concentration 280 nM,80%
same,% Inhibition,benzodiazepine receptor; concentration 930 nM,92%
same,% Inhibition,benzodiazepine receptor; concentration 3 μM,93%
same,% Inhibition,benzodiazepine receptor; concentration 9 μM,99%
same,% Inhibition,benzodiazepine receptor; concentration 28 μM,106%
same,% Inhibition,benzodiazepine receptor; concentration 93 μM,107%
C/C1=C\CC(C)(C)/C=C/C[C@@]2(C)Oc3c4c(c(O)c(O)c(=O)c3O)CO[C@H]4[C@@H]2CC1 [Compound B],Solubility,[1],"Methanol, ethyl acetate, chloroform, acetone"
same,IC50,benzodiazepine receptor,5000 nM
same,% Inhibition,benzodiazepine receptor; concentration 18 nM,21%
same,% Inhibition,benzodiazepine receptor; concentration 53 nM,21%
same,% Inhibition,benzodiazepine receptor; concentration 177 nM,36%
same,% Inhibition,benzodiazepine receptor; concentration 530 nM,42%
same,% Inhibition,benzodiazepine receptor; concentration 2 μM,53%
same,% Inhibition,benzodiazepine receptor; concentration 5 μM,69%
same,% Inhibition,benzodiazepine receptor; concentration 18 μM,82%
same,% Inhibition,benzodiazepine receptor; concentration 53 μM,92%
same,% Inhibition,benzodiazepine receptor; concentration 177 μM,78%
C/C1=C\CC(C)(C)/C=C/C[C@@]2(C)Oc3c4c(cc(O)c(=O)c3O)CO[C@H]4[C@@H]2CC1 [Compound C],Solubility,[1],"Methanol, acetone, ethyl acetate"
same,IC50,benzodiazepine receptor,20000 nM
same,% Inhibition,benzodiazepine receptor; concentration 80 nM,9%
same,% Inhibition,benzodiazepine receptor; concentration 240 nM,-3%
same,% Inhibition,benzodiazepine receptor; concentration 800 nM,9%
same,% Inhibition,benzodiazepine receptor; concentration 2 μM,12%
same,% Inhibition,benzodiazepine receptor; concentration 8 μM,35%
same,% Inhibition,benzodiazepine receptor; concentration 24 μM,54%
same,% Inhibition,benzodiazepine receptor; concentration 80 μM,77%
same,% Inhibition,benzodiazepine receptor; concentration 242 μM,88%
C/C1=C\CC(C)(C)/C=C/C[C@@]2(C)OC3=C(O)C(=O)[C@H]4CO[C@H]([C@@H]34)[C@@H]2CC1 [Compound D],IC50,benzodiazepine receptor,10 nM
same,% Inhibition,benzodiazepine receptor; concentration 5 nM,45%
same,% Inhibition,benzodiazepine receptor; concentration 10 nM,45%
same,% Inhibition,benzodiazepine receptor; concentration 50 nM,70%
same,% Inhibition,benzodiazepine receptor; concentration 100 nM,65%
same,% Inhibition,benzodiazepine receptor; concentration 500 nM,81%
same,% Inhibition,benzodiazepine receptor; concentration 1 μM,86%
same,% Inhibition,benzodiazepine receptor; concentration 5 μM,98%
same,% Inhibition,benzodiazepine receptor; concentration 10 μM,100%
same,% Inhibition,benzodiazepine receptor; concentration 50 μM,103%
same,% Inhibition,benzodiazepine receptor; concentration 100 μM,92%
C/C1=C\CC(C)(C)/C=C/C[C@@]2(C)Oc3c(O)c(O)cc4c3[C@@H](OC4)[C@@H]2CC1 [Compound E],Solubility,[1],"methanol, ethyl acetate"
same,IC50,benzodiazepine receptor,500 nM
same,% Inhibition,benzodiazepine receptor; concentration 4.8 × 10^-5 M,101%
same,% Inhibition,benzodiazepine receptor; concentration 4.8 × 10^-6 M,88%
same,% Inhibition,benzodiazepine receptor; concentration 4.8 × 10^-7 M,52%
same,% Inhibition,benzodiazepine receptor; concentration 4.8 × 10^-8 M,37%
same,% Inhibition,benzodiazepine receptor; concentration 4.8 × 10^-9 M,22%
same,% Inhibition,benzodiazepine receptor; concentration 9.5 × 10^-5 M,104%
same,% Inhibition,benzodiazepine receptor; concentration 9.5 × 10^-6 M,93%
same,% Inhibition,benzodiazepine receptor; concentration 9.5 × 10^-7 M,65%
same,% Inhibition,benzodiazepine receptor; concentration 9.5 × 10^-8 M,42%
same,% Inhibition,benzodiazepine receptor; concentration 9.5 × 10^-9 M,27%
C/C1=C\CC(C)(C)/C=C/C[C@@]2(C)OC3=C4C(=CC(=O)C3=O)CO[C@H]4[C@@H]2CC1 [Compound F],Solubility,[1],methanol
same,IC50,benzodiazepine receptor,3000 nM
same,% Inhibition,benzodiazepine receptor; concentration 2.7 × 10^-4 M,94%
same,% Inhibition,benzodiazepine receptor; concentration 2.7 × 10^-5 M,77%
same,% Inhibition,benzodiazepine receptor; concentration 2.7 × 10^-6 M,48%
same,% Inhibition,benzodiazepine receptor; concentration 2.7 × 10^-7 M,33%
same,% Inhibition,benzodiazepine receptor; concentration 2.7 × 10^-8 M,24%
same,% Inhibition,benzodiazepine receptor; concentration 9.0 × 10^-5 M,89%
same,% Inhibition,benzodiazepine receptor; concentration 9.0 × 10^-6 M,65%
same,% Inhibition,benzodiazepine receptor; concentration 9.0 × 10^-7 M,41%
same,% Inhibition,benzodiazepine receptor; concentration 9.0 × 10^-8 M,27%
same,% Inhibition,benzodiazepine receptor; concentration 9.0 × 10^-9 M,15%
